Entries after “also recorded” stand apart in the source; their conditions may differ. Structures can show the parent of a compound that is named as a salt.
Tests used:
[1] = biological target: T1, D2 receptor (Rattus norvegicus, UniProt P61169); assay: biochemical; settings: [3H]-spiperone; rat striatal membranes; Table 2; read-out: Binding D2 rat striatum Ki
Description: (§1) The tissues were homogenized in 50 mM Tris/HCl buffer, pH 7.4 (1:100 weight/volume).
(§2) The homogenate was centrifuged and the pellet was resuspended, centrifuged again and resuspended in 50 mM Tris/HCl buffer pH 7.4 containing 120 mM NaCl, 5mM KCl, 2mM CaCl2 and 1 mM MgCl2.
The standard incubation conditions (volume 1 ml) for the assay in which [^3 H]-SCH23390 was used were as follows: 50 mM Tris/HCl buffer (pH 7.4), 0.2 nM [^3 H]-SCH23390, a membrane preparation (3 mg/ml corresponding to 130-150 μg proteins/ml), incubation temperature 37° C. and incubation time 15 minutes. The standard incubation conditions (volume 2 ml) for the assay in which [^3 H]-spiperone was used were as follows: 50 mM Tris/HCl buffer (pH 7.4), 0.2 nM [^3 H]-spiperone, a membrane preparation (3 mg/ml corresponding to 130-150 μg proteins/ml), incubation temperature 37° C. and incubation time 15 minutes.

[2] = biological target: T2, D1 receptor (Rattus norvegicus, UniProt P18901); assay: biochemical; settings: [3H]-SCH23390; rat striatal membranes; Table 2; read-out: Binding D1 rat striatum Ki
Description: as §1, §2

[3] = biological target: T3, DA2 (Oryctolagus cuniculus, UniProt G1T1Q0); assay: DA2-agonist activity on electrically stimulated rabbit ear artery; settings: inhibition of contraction induced by electric stimulation; for EC50: read-out: DA2 rabbit ear artery pD2 (-log EC50) (converted)
T3 construct: Transversal sections (2-3 mm) of rabbit ear artery were suspended in isolated organ baths; from tissue; host or cells: rabbit ear artery (transversal sections)
Description: DA2 -agonist activity was evaluated as follows. Transversal sections (2-3 mm) of rabbit ear artery were suspended in isolated organ baths containing Krebs-Henseleit solution added with corticosterone (30 μM), desipramine (0.1 μM) and EDTA (10 μM).
The preparation, subjected to a traction of 1 g and to an electric stimulation with field pulses every 5 minutes (10 Hz, 1 msec., 30-60 V, 500 msec. duration) were left stabilize for about 2 hours.
Each preparation was submitted to three increasing concentrations allowing the recovery of the basal conditions before the subsequent administration.

[4] = in words; cited from earlier work
[5] = system: SHR rats; assay: In vivo antihypertensive activity, systolic blood pressure by tail cuff in conscious SHR rats; parameters: species or system rat (SHR)
Description: Male SHR rats, 3-4 months old, fasted 16 hours before the experiment were used. Systolic blood pressure (SBP) and heart rate (HR) were recorded by tail cuff method in conscious animals by means of a BP Recorder (W+W Basile, Italy). Before every pressure determination animals were maintained at 37° C. for 10 minutes.
SBP and HR values were recorded before and at various times up to seven hours after treatment with the tested compounds.
The compounds were administered orally by gavage, in a volume of 10 ml/kg, at doses between 10 and 160 mg/kg. For the administration, the compounds were suspended in carboxymethylcellulose (CMC) 0.5% in water and additioned with Tween 80 (0.3 ml/10 ml of CMC).
The obtained results, expressed as ED30mmHg (mg/kg p.o.) that is the dose causing a decrease of 30 mmHg from the basal value of SBP (about 15% decrease) are the following: […]

[6] = biological target: T1, D2 receptor; assay: Receptor binding, D2 receptor, [3H]-domperidone, rat striatal membranes (part A); parameters: membranes from striatal tissues were prepared; from tissue; host or cells: rat striatum (membranes); species or system rat (Sprague-Dawley); settings: for Ki: [3H]-domperidone, rat striatal membranes, Table 1, read-out: Affinity Ki for D2 receptor
Description: as §1, §2
For D2 -receptor binding studies [^3 H]-domperidone (0.3 nM) was incubated in a volume of 1000 μl containing buffer and a membrane preparation as above described. In addition bovine serum albumine (BSA) (0.01%) was added. The mixture was incubated at 37° C. for 30 minutes for each concentration of the tested compounds.

[7] = biological target: T2, D1 receptor; assay: Receptor binding, D1 receptor, [3H]-SCH23390, rat striatal membranes (part A); parameters: membranes from striatal tissues were prepared; from tissue; host or cells: rat striatum (membranes); species or system rat (Sprague-Dawley); settings: for Ki: [3H]-SCH23390, rat striatal membranes, Table 1, read-out: Affinity Ki for D1 receptor
[8] = system: dopaminergic receptors; settings: in words; cited from earlier work

T2 sequence (P18901 whole entry): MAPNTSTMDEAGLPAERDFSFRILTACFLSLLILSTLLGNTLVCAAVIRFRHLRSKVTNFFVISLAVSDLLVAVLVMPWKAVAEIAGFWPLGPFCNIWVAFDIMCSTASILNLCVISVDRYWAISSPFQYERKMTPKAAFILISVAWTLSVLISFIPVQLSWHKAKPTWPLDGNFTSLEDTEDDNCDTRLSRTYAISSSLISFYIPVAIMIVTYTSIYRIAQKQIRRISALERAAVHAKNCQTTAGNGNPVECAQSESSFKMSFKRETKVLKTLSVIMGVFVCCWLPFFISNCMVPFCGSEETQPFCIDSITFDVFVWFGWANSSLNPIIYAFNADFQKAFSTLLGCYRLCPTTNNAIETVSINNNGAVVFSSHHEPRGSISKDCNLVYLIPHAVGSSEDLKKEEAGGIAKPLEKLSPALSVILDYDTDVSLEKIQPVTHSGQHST
T3 sequence (G1T1Q0 1-443): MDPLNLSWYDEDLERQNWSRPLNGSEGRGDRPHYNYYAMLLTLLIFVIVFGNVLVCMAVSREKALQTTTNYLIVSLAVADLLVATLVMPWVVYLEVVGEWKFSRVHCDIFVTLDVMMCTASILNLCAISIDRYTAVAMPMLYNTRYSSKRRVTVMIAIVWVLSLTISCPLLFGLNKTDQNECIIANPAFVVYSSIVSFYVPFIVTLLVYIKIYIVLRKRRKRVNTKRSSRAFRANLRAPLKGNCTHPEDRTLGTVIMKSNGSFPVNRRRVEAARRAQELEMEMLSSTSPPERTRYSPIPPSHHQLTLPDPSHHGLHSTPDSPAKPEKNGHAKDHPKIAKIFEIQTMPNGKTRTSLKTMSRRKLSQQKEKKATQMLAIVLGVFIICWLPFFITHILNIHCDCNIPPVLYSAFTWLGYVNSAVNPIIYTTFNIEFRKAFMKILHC
T1 sequence (P61169 whole entry): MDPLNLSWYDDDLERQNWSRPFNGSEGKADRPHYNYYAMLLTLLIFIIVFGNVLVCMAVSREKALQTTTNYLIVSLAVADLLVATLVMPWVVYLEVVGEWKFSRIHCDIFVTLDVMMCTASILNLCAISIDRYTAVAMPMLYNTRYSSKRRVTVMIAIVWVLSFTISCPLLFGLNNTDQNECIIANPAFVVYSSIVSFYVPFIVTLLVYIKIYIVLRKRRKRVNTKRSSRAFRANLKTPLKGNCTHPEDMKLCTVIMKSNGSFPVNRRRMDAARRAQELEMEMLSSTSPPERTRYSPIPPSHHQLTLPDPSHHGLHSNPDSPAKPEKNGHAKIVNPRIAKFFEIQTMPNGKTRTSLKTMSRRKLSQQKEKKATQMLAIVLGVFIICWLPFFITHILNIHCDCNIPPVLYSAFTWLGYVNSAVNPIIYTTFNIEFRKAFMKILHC

SMILES	Ki [1] [nM]	Ki [2] [nM]	EC50 [3] [nM]	further results
CCCCN(CCCCCCNCCOc1ccccc1Cl)[C@H]1CCc2c(ccc(O)c2O)C1 [Compound 4, (S)-N-butyl-N-[6-[2-2-(chlorophenoxy)ethylamino]hexyl]-5,6-dihydroxy-1,2,3,4-tetrahydro-2-naphthylamine dihydrochloride]	80	700	513	
NCCc1ccc(O)c(O)c1 [Dopamine, dopamine]				DA2 rabbit ear artery pD2 (-log EC50) [3]: 7.40; Oral absorption (literature) [4]: lack of absorption by opal route; also recorded: not absorbed when administered by oral route
CCCN(CCCNCCOc1ccccc1OC)[C@H]1CCc2c(ccc(O)c2O)C1 [Compound 7, (S)-N-propyl-N-[3-[2-[(2-methoxyphenoxy)ethylamino]propyl]-5,6-dihydroxy-1,2,3,4-tetrahydro-2-naphthylaminedihydrochloride]	1.1	1100	2.14	
CCCN(CCCCCCNCCOc1ccc(C)cc1Cl)[C@H]1CCc2c(ccc(O)c2O)C1 [Compound 5, (S)-N-propyl-N-[6-[2-[(2-chloro-4-methyl)phenoxy]ethylamino]-hexyl]-5,6-dihydroxy-1,2,3,4-tetrahydro-2-naphthylamine dihydrochloride]	5	120	6.92	
CCCN(CCCCCCNCCOc1ccccc1OC)[C@@H]1CCc2cc(O)c(O)cc2C1 [Compound 2, (R)-N-propyl-N-[6-[2-(2-methoxyphenoxy)ethylamino]hexyl]-6,7-dihydroxyl-1,2,3,4-tetrahydro-2-naphthylamino dihydrochloride]	8.4	315	4.37	
CCCN(CCCCCCNCCOc1ccccc1OC)[C@H]1CCc2c(ccc(O)c2O)C1 [Compound 1, S-(-)-N-propyl-N-[6-(2-(2-methoxyphenoxy)ethylamino]hexyl]-5,6-dihydroxy-1,2,3,4-tetrahydro-2-naphthylamine dihydrchloride]	0.5	90	1.07	ED (30 mmHg) ([5]; Rattus norvegicus, oral gavage, about 15% decrease of SBP, read-out: ED30mmHg, dose causing a decrease of 30 mmHg from the basal value of SBP): 22.9 mg/kg; Duration of the antihypertensive effect ([5]; oral): about 4 hours; Ki [6]: 4 nM; Potency on D2 receptors, times more potent than dopamine and dopexamine ([6]; vs dopamine and dopexamine): about 100 times; Ki [7]: 195 nM; Potency on D1 receptors, times more potent than dopamine and dopexamine ([7]; vs dopamine and dopexamine): about 10 times
CCCCN(CCCCCCNCCOc1ccccc1OC)[C@H]1CCc2c(ccc(O)c2O)C1 [Compound 3, (S)-N-butyl-N-[6-[2-(2-methoxyphenoxy)ethylamino]hexyl]-5,6-dihydroxy-1,2,3,4-tetrahydro-2-naphthylamine dihydrochloride]	86	560	29.5	

Second part, led by results:

Ki [1] [nM]	Ki [2] [nM]	EC50 [3] [nM]	SMILES	further results
9.8	3600	4.07	CCCN(CCCN(C)CCOc1ccccc1OC)[C@H]1CCc2c(ccc(O)c2O)C1 [Compound 13, (S)-N-propyl-N-[2-(5,6-dihydroxy-1,2,3,4-tetrahydro)naphthyl]-N'-methyl-N'-[2-(2-methoxyphenoxy)ethyl]-1,3-propanediamine dihydrochloride]	
16	2650	44.7	CCCN(CCCNCCOc1ccccc1Cl)[C@@H]1CCc2cc(O)c(O)cc2C1 [Compound 8, (R)-N-propyl-N-[3-[2-[(2-chlorophenoxy)ethylamino]propyl]-6,7-dihydroxy-1,2,3,4-tetrahydro-2-naphthylaminedihydrochloride]	
8.3	180	457	CCCN(CCCCCCN(C)CCOc1ccc(C)cc1Cl)[C@H]1CCc2c(ccc(O)c2O)C1 [Compound 12, (S)-N-[2-(5,6-dihydroxy-1,2,3,4-tetrahydro)naphthyl]-N-propyl-N'-methyl-N'-[2-[(2-chloro-4-methyl]phenoxyl]ethyl]-1,6-hexanediamine dihydrochloride]	
5.5	410	3.39	CCCN(CCCCCCN(C)CCOc1ccccc1OC)[C@H]1CCc2c(ccc(O)c2O)C1 [Compound 10, (S)-N-[2-(5,6-dihydroxy-1,2,3,4-tetrahydro)naphthyl]-N-propyl-N'-methyl-N'-[2-(2-methoxyphenoxy)ethyl]-1,6-hexanediamine dihychloride]	
190	22000	1050	CCCCN(CCCNCCOc1ccc(C)cc1OC)[C@H]1CCc2c(ccc(O)c2O)C1 [Compound 9, (S)-N-butyl-N-[3-[2-[(2-methoxy-4-methyl)phenoxy]ethylamino]propyl]-5,6-dihydroxyl-1,2,3,4-teyrahydro-2-naphthylamine dihydrochloride]	
630	11700	1350	CCCCN(CCCCCCN(C)CCOc1ccccc1OC)[C@@H]1CCc2cc(O)c(O)cc2C1 [Compound 11, (R)-N-butyl-N-[2-(6,7-dihydroxy-1,2,3,4-tetrahydro)naphthyl]-N'-methyl-N'-[2-(2-methoxyphenoxy)ethyl]-1,6-hexanediamine dihydrochloride]	
1700	3200	447	Oc1ccc(CCNCCCCCCNCCc2ccccc2)cc1O [Dopexamine, dopexamine, reference compound]	Ki [6]: 145 nM; Agonist activity on dopaminergic receptors relative to dopamine [8]: less active than dopamine; Ki [7]: 2230 nM; Oral absorption (literature) [4]: not absorbed when administered by oral route
260	2800	6030	CCCCN(CCCN(C)CCOc1ccc(C)cc1Cl)[C@@H]1CCc2cc(O)c(O)cc2C1 [Compound 14, (R)-N-butyl-N-[2-(6.,7-dihydroxy-l,2,3,4-tetrahydro)naphthyl]-N'-methyl-N'-[2-[(2-chloro-4-methyl)phenoxy]ethyl]-1.3-propanediamine dihydrochloride]	

Source: patent publication US5407956A, “2-amino-1,2,3,4-tetrahydronaphthalene derivatives active on the cardiovascular system, processes for their preparation and pharmaceutical compositions containing them” (Zambon Group S.p.A., priority 1992, dated 1995)
